In US20240024251A1, “POLYSACCHARIDE ENCAPSULATED OXYGEN NANOBUBBLES” (THE BOARD OF TRUSTEES OF THE UNIVERSITY OF ILLINOIS, priority 2020, published 2024):

Test system: R-28 and ARPE-19 cell line
Settings: rat (R-28), human (ARPE-19), 48 h
Procedure: The biosafety of DONBs and excipients used in the formulation was evaluated on retinal precursor cells R-28 and retinal pigment epithelial cells (ARPE-19). The suspensions of the following cell line (100 μL, −60,000 cells/mL) were seeded into each well of a 96-well plate and cultured overnight. The cells were cultured for 24 h in the dark.
Excipient toxicity studies on ARPE-19 and R28 cell line. Cell viability was conducted with ARPE-19 and R28 cell lines, in response to treatment with nanobubble excipients, using the [3-(4, 5-dimethylthiazol-2-yl)-2, 5-diphenyl tetrazolium bromide](MTT) assay. The MTT reagent (Cat no. M6494, Thermo Fisher Scientific) was prepared by dissolving 5 mg of MTT per 1 ml of phosphate-buffered saline (Cat no. 21-040-CV, Corning), filter sterilized using a 0.22 μm filter, and stored in dark at 4° C. Yellow MTT is reduced to purple formazan in the mitochondria of living cells. Cells were grown to 80-90% confluence in a T-25 flask, dissociated using trypsin, and seeded into a 96-well plate at a density of 10000 cells per well. […] The absorbance was measured at 590 nm with a reference filter of 620 nm.

## OC[C@H]1O[C@H](O[C@H]2O[C@H](CO)[C@@H](O)[C@H](O)[C@H]2O)[C@H](O)[C@@H](O)[C@@H]1O [Trehalose, D-(+)-Trehalose dihydrate]
  excipient concentration producing some toxic effect on cell viability: 0.6 to 0.7 mg
